Measurements as given in ChEMBL document CHEMBL5150030, “Enhancing the Safety and Efficacy of PSMA-Based Small-Molecule Drug Conjugates by Linker Stabilization and Conjugation to Transthyretin Binding Ligand” (J Med Chem, 2022).
Calls of active or inactive are those of the source. No cut-off for these calls is given here. Square brackets hold non-standard residues; d marks the D form. Peptide text beside a SMILES is read from it. * marks the point of attachment. Dolaproine = CO[C@@H]([C@@H]1CCCN1)[C@@H](C)C(=O)O; Dil = CC[C@H](C)[C@H](NC)[C@@H](CC(=O)O)OC; X1 = C[C@@H](N*)[C@@H](O)c1ccccc1; NMeV = CN[C@H](C(=O)O)C(C)C

Legend:
Transthyretin [1] = molecular target: T1, Transthyretin (Homo sapiens, UniProt P02766); experiment: Binding affinity to human serum TTR assessed as target occupancy incubated for 6 hrs by fluorescence polarization assay
[2] = Stability of compound in PBS at 37 degreeC incubated for 24 hrs by RP-HPLC analysis; format: physicochemical; conditions: buffer
[3] = Stability of compound in human serum at 37 degreeC incubated for 24 hrs by RP-HPLC analysis; format: ADME, cell-free
[4] = Stability of compound in mouse serum at 37 degreeC incubated for 24 hrs by RP-HPLC analysis; format: ADME, cell-free; conditions: read-out: Stability
[5] = Toxicity in CD-1 mouse assessed as body weight loss at 2.5 mg/kg,ip administrated upto 20 days for every 5 days; format: organism-based; conditions: in vivo, 480 h, time < 20 day
[6] = Drug concentration in CD-1 mouse at 2.5 mg/kg,ip measured upto 24 hrs by LC-MS/MS analysis; format: ADME, organism-based; conditions: in vivo
[7] = Drug metabolism in human liver assessed as cathepsin B mediated hydrolysis MMAE metabolite formation measured after 15 mins by HPLC/LC-MS/MS analysis; format: ADME, tissue-based; conditions: 0.25 h
LNCaP [8] = experiment: Cytotoxicity against human LNCaP cells assessed as reduction in cell viability incubated for 72 hrs by CellTiter-96 assay; format: functional, cell-based
LNCaP [9] = experiment: Cytotoxicity against human LNCaP cells assessed as reduction in cell viability incubated for 72 hrs in presence of TTR by CellTiter-96 assay; format: functional, cell-based
DU-145 [10] = experiment: Cytotoxicity against human DU-145 cells assessed as reduction in cell viability incubated for 72 hrs by CellTiter-96 assay; format: functional, cell-based; conditions: DU-145, 72 h
DU-145 [11] = experiment: Cytotoxicity against human DU-145 cells assessed as reduction in cell viability incubated for 72 hrs in presence of TTR by CellTiter-96 assay; format: functional, cell-based; conditions: DU-145, 72 h
HeLa [12] = experiment: Cytotoxicity against human HeLa cells assessed as reduction in cell viability incubated for 72 hrs by CellTiter-96 assay; format: functional, cell-based
HeLa [13] = experiment: Cytotoxicity against human HeLa cells assessed as reduction in cell viability incubated for 72 hrs in presence of TTR by CellTiter-96 assay; format: functional, cell-based
[14] = Toxicity in mouse assessed as increase in body weight at 6.2 mg/kg,ip measured upto 21 days for every 3 days; format: organism-based; conditions: in vivo, 504 h, time < 21 day
[15] = Toxicity in mouse assessed as maximum tolerated dose administered intraperitoneally measured upto 21 days for every 3 days; conditions: in vivo, route ip, time < 21 day
[16] = Toxicity in mouse assessed as reduction in body weight at 20 mg/kg,ip measured for 21 days by every 3 days; format: organism-based; conditions: in vivo, 504 h, time 21 day
[17] = Toxicity in mouse assessed as reduction in body weight at 40 mg/kg,ip measured upto 21 days for every 3 days; format: organism-based; conditions: in vivo, 504 h, time < 21 day
[18] = Toxicity in mouse xenografted with human LNCaP cells assessed as change in body weight at 10 mg/kg,ip administrated upto 35 days for every 5 days; format: organism-based; conditions: in vivo, 840 h, time < 35 day
[19] = Drug concentration in CD-1 mouse at 3 mg/kg,ip measured upto 24 hrs by LC-MS/MS analysis; format: ADME, organism-based; conditions: in vivo
[20] = molecular target: Transthyretin (Mus musculus) (UniProt P07309); experiment: Binding affinity to mouse serum TTR assessed as target occupancy incubated for 1 hrs by fluorescence polarization assay
Transthyretin [21] = molecular target: T1, Transthyretin; experiment: Binding affinity to human TTR incubated for 20 mins by fluorescence polarization assay
[22] = Toxicity in CD-1 mouse assessed as body weight loss at 3.1 mg/kg,ip administrated upto 20 days for every 5 days; format: organism-based; conditions: in vivo, 480 h, time < 20 day
[23] = Drug metabolism in human liver assessed as cathepsin B mediated hydrolysis MMAE metabolite formation measured after 30 mins by HPLC/LC-MS/MS analysis; format: ADME, tissue-based; conditions: 0.5 h
LNCaP [24] = experiment: Antitumor activity against human LNCaP cells xenografted mouse assessed as reduction in tumor growth at 3.1 mg/kg,ip administrated upto 35 days for every 5 days; format: functional, organism-based; conditions: time <= 35.0 day
[25] = Toxicity in mouse xenografted with human LNCaP cells assessed as increase in body weight at 3.1 mg/kg,ip administrated upto 35 days for every 5 days; format: organism-based; conditions: in vivo, 840 h, time < 35 day
[26] = Toxicity in mouse xenografted with human LNCaP cells assessed as mouse survival time at 3.1 mg/kg,ip administrated upto 35 days for every 5 days; format: organism-based; conditions: in vivo, 840 h, time < 35 day
LNCaP [27] = experiment: Antitumor activity against human LNCaP cells xenografted mouse assessed as reduction in tumor relapse at 3.1 mg/kg,ip administrated upto 35 days for every 5 days; format: functional, organism-based; conditions: time <= 35.0 day
[28] = Toxicity in CD-1 mouse assessed as body weight loss at 0.4 mg/kg,ip administrated upto 20 days for every 5 days; format: organism-based; conditions: in vivo, 480 h, time < 20 day

Activity (Transthyretin [1]) [%] | SMILES | Stability [2] | Stability [3] | remaining at 24 h [4] [%] | IC50 (LNCaP [8]) [nM] | IC50 (LNCaP [9]) [nM] | IC50 (DU-145 [10]) [nM] | IC50 (DU-145 [11]) [nM] | IC50 (HeLa [12]) [nM] | IC50 (HeLa [13]) [nM] | MTD at 504 h [15] [mg/kg] | Kd (Transthyretin [21]) [nM] | also measured
49.5 | O=C(O)c1ccc2nc(-c3cc(Cl)cc(Cl)c3)oc2c1 |  |  |  |  |  |  |  |  |  |  |  | 
 | C#CCC(NC(=O)CCSC1CC(=O)N(CCCCCC(=O)N[C@@H](CCC(=O)O)C(=O)N[C@H](C(=O)N[C@@H](CCCNC(N)=O)C(=O)Nc2ccc(COC(=O)N(C)[C@H](C(=O)N[C@H](C(=O)N(C)[C@@H]([C@@H](C)CC)[C@@H](CC(=O)N3CCC[C@H]3[C@H](OC)[C@@H](C)C(=O)N[C@H](C)[C@@H](O)c3ccccc3)OC)C(C)C)C(C)C)cc2)C(C)C)C1=O)C(=O)NCCCCCC(=O)NCCCC[C@H](NC(=O)N[C@@H](CCC(=O)O)C(=O)O)C(=O)O (some centres not stated) | Stable | Stable | 64.1 | 0.83 | 0.81 | 1050 | 1020 | 551 | 525 | 5 |  | Activity [5]: Non-Toxic; Drug uptake [6]: Active; Drug metabolism [7]: Metabolite_Detected; Activity [14]: Toxic
 | CC(=O)O[C@@]12CO[C@@H]1C[C@H](O)[C@@]1(C)C(=O)[C@H](O)C3=C(C)[C@@H](OC(=O)[C@H](O)[C@@H](NC(=O)OC(C)(C)C)c4ccccc4)C[C@@](O)([C@@H](OC(=O)c4ccccc4)[C@H]21)C3(C)C [DOCETAXEL ANHYDROUS] |  |  |  |  |  |  |  |  |  |  |  | Activity [16]: Toxic; Activity [17]: Toxic; Activity [18]: Non-Toxic
 | CC[C@H](C)[C@@H]([C@@H](CC(=O)N1CCC[C@H]1[C@H](OC)[C@@H](C)C(=O)N[C@H](C)[C@@H](O)c1ccccc1)OC)N(C)C(=O)[C@@H](NC(=O)[C@@H](NC)C(C)C)C(C)C (H-[NMeV]V[Dil][Dolaproine]-X1) |  |  |  | 0.79 | 0.71 | 0.55 | 0.62 | 1.1 | 1 |  |  | Activity [28]: Toxic
80.7 | Cc1n[nH]c(C)c1CCCOc1cc(OCCCCCCNCCOCCOCCN=[N+]=[N-])cc(C(=O)O)c1 |  |  |  |  |  |  |  |  |  |  | 74.3 | 

SMILES | Activity (Transthyretin [1]) [%] | Stability [2] | Stability [3] | remaining at 24 h [4] [%] | IC50 (LNCaP [8]) [nM] | IC50 (LNCaP [9]) [nM] | IC50 (DU-145 [10]) [nM] | IC50 (DU-145 [11]) [nM] | IC50 (HeLa [12]) [nM] | IC50 (HeLa [13]) [nM] | MTD at 504 h [15] [mg/kg] | Kd (Transthyretin [21]) [nM] | also measured
CC[C@H](C)[C@@H]([C@@H](CC(=O)N1CCC[C@H]1[C@H](OC)[C@@H](C)C(=O)N[C@H](C)[C@@H](O)c1ccccc1)OC)N(C)C(=O)[C@@H](NC(=O)[C@H](C(C)C)N(C)C(=O)OCc1ccc(NC(=O)[C@H](CCCNC(N)=O)NC(=O)[C@@H](NC(=O)[C@H](CCC(=O)O)NC(=O)CCCCCN2C(=O)CC(SCCC(=O)NC(Cc3cn(CCOCCOCCNCCCCCCOc4cc(OCCCc5c(C)n[nH]c5C)cc(C(=O)O)c4)nn3)C(=O)NCCCCCC(=O)NCCCC[C@H](NC(=O)N[C@@H](CCC(=O)O)C(=O)O)C(=O)O)C2=O)C(C)C)cc1)C(C)C (some centres not stated) | 67.5 | Stable | Stable | 71.3 | 1.02 | 1.19 | 421 | 1250 | 259 | 816 | 3.1 | 448 | Drug uptake [19]: Active; Activity [20]: Active; Activity [22]: Non-Toxic; Drug metabolism [23]: Metabolite_Detected; Activity (LNCaP [24]): Active; Activity [25]: Toxic; Survival [26]: 100 days; Activity (LNCaP [27]): Active
